Drawing on the Kinase Knowledgebase extract (Sharma et al. 2016), this text covers IC50 for eleven molecules.

In the assay the target is PIK3CA (UniProt P42336). The experiment in a line: PI3K Inhibition.
Sequence of PIK3CA (P42336 whole entry, looked up): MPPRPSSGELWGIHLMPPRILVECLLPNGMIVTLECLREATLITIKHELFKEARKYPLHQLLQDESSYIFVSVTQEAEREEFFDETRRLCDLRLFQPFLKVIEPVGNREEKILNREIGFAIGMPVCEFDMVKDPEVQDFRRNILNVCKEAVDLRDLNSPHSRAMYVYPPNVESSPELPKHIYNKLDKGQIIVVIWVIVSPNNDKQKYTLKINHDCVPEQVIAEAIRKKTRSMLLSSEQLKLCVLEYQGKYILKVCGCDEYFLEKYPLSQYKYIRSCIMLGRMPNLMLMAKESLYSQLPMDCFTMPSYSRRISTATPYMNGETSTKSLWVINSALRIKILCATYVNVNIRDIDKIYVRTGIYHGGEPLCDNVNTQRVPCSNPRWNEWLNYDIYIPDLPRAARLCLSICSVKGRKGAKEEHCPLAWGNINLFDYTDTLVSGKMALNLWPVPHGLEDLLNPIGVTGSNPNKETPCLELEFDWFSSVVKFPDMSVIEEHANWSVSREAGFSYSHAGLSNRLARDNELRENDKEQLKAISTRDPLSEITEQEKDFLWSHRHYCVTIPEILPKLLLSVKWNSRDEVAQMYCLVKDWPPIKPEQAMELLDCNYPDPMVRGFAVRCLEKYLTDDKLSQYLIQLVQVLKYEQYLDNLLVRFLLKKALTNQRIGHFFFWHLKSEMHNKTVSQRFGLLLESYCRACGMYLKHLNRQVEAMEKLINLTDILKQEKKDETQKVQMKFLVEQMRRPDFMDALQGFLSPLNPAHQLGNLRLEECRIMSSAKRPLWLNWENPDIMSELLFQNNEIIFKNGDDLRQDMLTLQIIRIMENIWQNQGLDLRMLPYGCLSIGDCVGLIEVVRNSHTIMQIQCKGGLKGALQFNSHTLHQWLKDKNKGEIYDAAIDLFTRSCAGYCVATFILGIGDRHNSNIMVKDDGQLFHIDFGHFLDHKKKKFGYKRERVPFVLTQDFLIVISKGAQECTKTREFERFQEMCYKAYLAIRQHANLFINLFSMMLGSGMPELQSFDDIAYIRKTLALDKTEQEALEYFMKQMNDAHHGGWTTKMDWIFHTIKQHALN
As usually defined, the IC50 is the concentration that inhibits the measured activity by half. A lower IC50 goes with greater potency in that assay. `CO[C@H]1C[C@@H](C)CC2=C(NCCCCCCCOc3ccc4c(=O)cc(N5CCOCC5)oc4c3C)C(=O)C=C(NC(=O)C(C)=CC=C[C@@H](OC)[C@H](OC(N)=O)C(C)=C[C@H](C)[C@H]1O)C2=O` displayed an IC50 of 5 µM.

On to `CO[C@H]1C[C@@H](C)CC2=C(NCCCC#Cc3cccc4c(=O)cc(N5CCOCC5)oc34)C(=O)C=C(NC(=O)C(C)=CC=C[C@@H](OC)[C@H](OC(N)=O)C(C)=C[C@H](C)[C@H]1O)C2=O`, for which the IC50 came out at 13.5 µM.

`CO[C@H]1C[C@@H](C)CC2=C(NCCOCCOc3ccc4c(=O)cc(N5CCOCC5)oc4c3)C(=O)C=C(NC(=O)C(C)=CC=C[C@@H](OC)[C@H](OC(N)=O)C(C)=C[C@H](C)[C@H]1O)C2=O` showed a concentration for half-maximal inhibition (IC50) of 85 µM.

In turn, `CO[C@H]1C[C@@H](C)CC2=C(NCCCCOc3ccc4c(=O)cc(N5CCOCC5)oc4c3)C(=O)C=C(NC(=O)C(C)=CC=C[C@@H](OC)[C@H](OC(N)=O)C(C)=C[C@H](C)[C@H]1O)C2=O` displayed an IC50 of 200 µM.

`CO[C@H]1C[C@@H](C)CC2=C(NCCOCCOc3ccc4c(=O)cc(N5CCOCC5)oc4c3C)C(=O)C=C(NC(=O)C(C)=CC=C[C@@H](OC)[C@H](OC(N)=O)C(C)=C[C@H](C)[C@H]1O)C2=O` returned an IC50 of 70 µM.

On to `C=CCNC1=C2C[C@@H](C)C[C@H](OC)[C@H](O)[C@@H](C)C=C(C)[C@H](OC(N)=O)[C@@H](OC)C=CC=C(C)C(=O)NC(=CC1=O)C2=O`, for which the IC50 was more than 500 µM.

The molecule `CO[C@H]1C[C@@H](C)CC2=C(NCCCCCOc3ccc4c(=O)cc(N5CCOCC5)oc4c3)C(=O)C=C(NC(=O)C(C)=CC=C[C@@H](OC)[C@H](OC(N)=O)C(C)=C[C@H](C)[C@H]1O)C2=O` returned an IC50 of 310 µM.

As to `CO[C@H]1C[C@@H](C)CC2=C(NCCCCCCOc3ccc4c(=O)cc(N5CCOCC5)oc4c3)C(=O)C=C(NC(=O)C(C)=CC=C[C@@H](OC)[C@H](OC(N)=O)C(C)=C[C@H](C)[C@H]1O)C2=O`, the IC50 is more than 500 µM.

`CO[C@H]1C[C@@H](C)CC2=C(NCC#Cc3cccc4c(=O)cc(N5CCOCC5)oc34)C(=O)C=C(NC(=O)C(C)=CC=C[C@@H](OC)[C@H](OC(N)=O)C(C)=C[C@H](C)[C@H]1O)C2=O` yielded an IC50 of 3 µM.

With `CO[C@H]1C[C@@H](C)CC2=C(NCCCCCCCCOc3ccc4c(=O)cc(N5CCOCC5)oc4c3C)C(=O)C=C(NC(=O)C(C)=CC=C[C@@H](OC)[C@H](OC(N)=O)C(C)=C[C@H](C)[C@H]1O)C2=O`, the half-inhibitory concentration (IC50) came out at 28 µM.

Take `CO[C@H]1C[C@@H](C)CC2=C(NCCCOc3ccc4c(=O)cc(N5CCOCC5)oc4c3)C(=O)C=C(NC(=O)C(C)=CC=C[C@@H](OC)[C@H](OC(N)=O)C(C)=C[C@H](C)[C@H]1O)C2=O`: the IC50 was more than 500 µM.
